Source: US5962466A, “Reduction of hair growth using inhibitors of matrix metalloproteinases” (priority 1998, dated 1999)
Like-named read-outs stand apart in the source and are kept apart here.

Tests used:
[1] = test system: flank organ hair growth; experiment: Golden Syrian hamster assay (flank organ hair mass); format: in vivo; conditions: topical, 13 applications
Description: Male intact Golden Syrian hamsters are considered acceptable models for human beard hair growth in that they display oval shaped flank organs, one on each side, each about 8 mm. in major diameter, which grow thick black and coarse hair similar to human beard hair. These organs produce hair in response to androgens in the hamster. To evaluate the effectiveness of a composition including an inhibitor of an MMP, the flank organs of each of a group of hamsters are depilated by applying a thioglycolate based chemical depilatory (Surgex). To one organ of each animal 10 μl. of vehicle alone once a day is applied, while to the other organ of each animal an equal amount of vehicle containing an inhibitor of a matrix metalloproteinase is applied. After thirteen applications (one application per day for five days a week), the flank organs are shaved and the amount of recovered hair (hair mass) from each is weighed. Percent-reduction of hair growth is calculated by subtracting the hair mass (mg) value of the test compound treated side from the hair mass value of the vehicle treated side; the delta value obtained is then divided by the hair mass value of the vehicle treated side, and the resultant number is multiplied by 100.
The above-described assay will be referred to herein as the "Golden Syrian hamster" assay.

[2] = target: T1, MMP-9 (92 kD collagenase) (Mesocricetus auratus, UniProt A0A1U7R3J7); experiment: Zymographic assay of MMP-9 in flank organ hair follicle homogenates; format: biochemical, hamster; conditions: read-out: Percent Inhibition of Flank Organ MMP-9 Collagenase Activity
T1 construct: Flank organ hair follicles were removed from untreated hamsters and homogenized in a buffer; from tissue; host or cells: hamster flank organ hair follicle homogenate
T1 sequence (A0A1U7R3J7 20-718): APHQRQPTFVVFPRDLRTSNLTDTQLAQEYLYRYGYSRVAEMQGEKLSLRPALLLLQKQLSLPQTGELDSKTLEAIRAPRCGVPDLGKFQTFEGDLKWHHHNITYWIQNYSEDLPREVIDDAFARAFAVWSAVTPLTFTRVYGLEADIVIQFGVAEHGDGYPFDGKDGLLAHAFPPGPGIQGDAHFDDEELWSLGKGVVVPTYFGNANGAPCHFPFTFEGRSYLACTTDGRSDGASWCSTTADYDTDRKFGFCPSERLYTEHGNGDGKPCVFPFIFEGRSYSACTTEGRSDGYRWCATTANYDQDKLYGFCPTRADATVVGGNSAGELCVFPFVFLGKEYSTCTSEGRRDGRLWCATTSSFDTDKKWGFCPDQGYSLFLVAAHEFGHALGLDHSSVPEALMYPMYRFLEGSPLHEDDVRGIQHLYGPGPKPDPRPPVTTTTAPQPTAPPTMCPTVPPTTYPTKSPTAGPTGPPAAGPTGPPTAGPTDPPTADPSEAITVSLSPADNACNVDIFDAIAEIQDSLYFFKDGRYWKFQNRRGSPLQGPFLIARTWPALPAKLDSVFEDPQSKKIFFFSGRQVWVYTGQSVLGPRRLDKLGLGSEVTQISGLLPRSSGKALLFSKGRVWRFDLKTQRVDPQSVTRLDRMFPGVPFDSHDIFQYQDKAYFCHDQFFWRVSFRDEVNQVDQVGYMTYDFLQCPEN
Method: (§1) The matrix metalloproteinases MMP-2 (72 kD collagenase) and MMP-9 (92 kD collagenase) were assayed in flank organ hair follicle homogenates using a zymographic assay. Zymography is an electrophoretic technique used to identify proteolytic activity in enzymes separated in polyacrylamide gels under nondenaturing conditions (Kleiner and Stetler-Stevenson, Analytical Biochemistry 218: 325-329, 1994). Flank organ hair follicles were removed from untreated hamsters and homogenized in a buffer containing 25 mM Tris, pH 7.5, and 50 mM sucrose. Samples of the homogenate were added to an equal volume of zymogram sample buffer containing 63 mM Tris-HCl, pH 6.8, 10% glycerol, 2% SDS, and 0.0025% bromophenol blue. (Note: all buffers and acrylamide gels were obtained from Novex, San Diego, Calif.). The samples were incubated for 10 minutes at room temperature and then loaded onto a precast 10% Tris-Glycine gel with 0.1% gelatin incorporated throughout the gel. The gel was electrophoresed at 125 constant volts for about 90 minutes. The gel was incubated for 30 minutes in renaturing buffer consisting of 2.5% triton X-100 followed by incubation in developing buffer which contained 10 mM Tris-base, 40 mM Tris-HCl, 200 mM NaCl, 5 mM CaCl2, and 0.02% Brij 35. The developing buffer was decanted after 30 minutes and replaced with fresh buffer for incubation overnight.
(§2) For inhibition experiments, the inhibitor was included in the renaturing and development buffer steps. The gel was stained with Coomassie blue 0.25% for 1 hour and then destained overnight. Transparent bands were visualized against a blue background. MMP-2 and MMP-9 standards were supplied by Oncologix (Gaithersburg, Md.). The relative degree of digestion, representing collagenase activity, was quantitated by scanning photographs of the gels using Adobe Photoshop (Adobe Systems Inc., Mountain View, Calif.) and IPLab Gel (Signal Analytics, Vienna, Va.) software. The images were digitally inverted so that the integrations of bands would be reported as positive values. This method of analysis was standardized with respect to protein concentration.

[3] = target: T2, MMP-2 (72 kD collagenase) (Mesocricetus auratus, UniProt A0A1U7R1N2); experiment: Zymographic assay of MMP-2 in flank organ hair follicle homogenates; format: biochemical, hamster; conditions: read-out: Percent Inhibition of Flank Organ MMP-2 Collagenase Activity
T2 construct: Flank organ hair follicles were removed from untreated hamsters and homogenized in a buffer; from tissue; host or cells: hamster flank organ hair follicle homogenate
T2 sequence (A0A1U7R1N2 30-662): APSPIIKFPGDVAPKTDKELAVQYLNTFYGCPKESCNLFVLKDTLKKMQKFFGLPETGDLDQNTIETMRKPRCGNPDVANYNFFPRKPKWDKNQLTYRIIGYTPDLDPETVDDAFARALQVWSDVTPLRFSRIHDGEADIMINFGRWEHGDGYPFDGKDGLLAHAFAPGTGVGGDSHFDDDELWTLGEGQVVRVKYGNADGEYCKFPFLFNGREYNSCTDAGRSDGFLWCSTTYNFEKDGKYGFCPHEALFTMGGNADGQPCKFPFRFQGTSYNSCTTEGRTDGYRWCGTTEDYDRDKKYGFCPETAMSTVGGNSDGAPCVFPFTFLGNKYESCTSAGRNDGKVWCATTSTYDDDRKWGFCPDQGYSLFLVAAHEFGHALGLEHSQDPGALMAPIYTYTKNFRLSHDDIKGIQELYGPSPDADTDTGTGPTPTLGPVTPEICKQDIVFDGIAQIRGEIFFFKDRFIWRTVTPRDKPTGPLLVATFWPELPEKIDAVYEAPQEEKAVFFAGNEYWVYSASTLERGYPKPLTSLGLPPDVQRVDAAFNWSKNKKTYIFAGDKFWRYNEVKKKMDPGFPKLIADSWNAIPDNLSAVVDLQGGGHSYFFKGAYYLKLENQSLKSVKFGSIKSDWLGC
Method: as §1, §2

SMILES	inhibition at 1000 µM ([2]; concentration 1 mM)	inhibition at 1000 µM ([3]; concentration 1 mM)	% Reduction of hair mass ([1]; dose 10%, Vehicle A, pH 4.0)	Hair Mass (mg) Treated ([1]; dose 10%, Vehicle A, pH 4.0)	inhibition at 100 µM ([2]; concentration 0.1 mM)	inhibition at 500 µM ([2]; concentration 0.5 mM)	inhibition at 100 µM [3]	inhibition at 500 µM [3]	further results
O=Cc1ccc(O)c(O)c1 [Protocatechuic aldehyde, 3,4-dihydroxybenzaldehyde]	–	–	–	–	–	–	–	–	% Reduction of hair mass ([1]; dose 10%, Vehicle A, pH 3.5): 32 ± 9%; Hair Mass (mg) Treated ([1]; dose 10%, Vehicle A, pH 3.5): 0.92 ± .13 mg
C=C1c2cccc(O)c2C(=O)C2=C(O)[C@]3(O)C(=O)C(C(N)=O)=C(O)[C@@H](N(C)C)[C@@H]3[C@@H](O)[C@H]12 [Methacycline, 6-methylene oxytetracycline]	100%	100%	57 ± 9%	0.68 ± .11 mg	–	–	–	–	–
C[C@H]1c2cccc(O)c2C(O)=C2C(=O)[C@]3(O)C(O)=C(C(N)=O)C(=O)[C@@H](N(C)C)[C@@H]3[C@@H](O)[C@@H]21 [Doxycycline, α-6-deoxy-5-hydroxytetracycline]	–	–	–	–	28%	100%	–	–	inhibition at 100 µM ([3]; concentration 0.1 mM): 89%; inhibition at 500 µM ([3]; concentration 0.5 mM): 100%; % Reduction of hair mass ([1]; dose 10%, Vehicle A, pH 5.5): 27 ± 9%; Hair Mass (mg) Treated ([1]; dose 10%, Vehicle A, pH 5.5): 1.73 ± .22 mg
c1cnc2c(c1)ccc1cccnc12 [1,10-Phenanthroline, 1,10-phenanthroline]	–	–	–	–	100%	100%	100%	100%	% Reduction of hair mass ([1]; dose 5%, Vehicle A, pH 7.0): 45 ± 9%; Hair Mass (mg) Treated ([1]; dose 5%, Vehicle A, pH 7.0): 1.40 ± .24 mg
CN(C)C1C(O)=C(C(N)=O)C(=O)C2(O)C(O)=C3C(=O)c4c(O)cccc4C(C)(O)C3CC12 (stereo not drawn) [Tetracycline, 4-(dimethylamino)-1,4,4a,5,5a,6,11,12a-octahydro-3,6,10,12,12a-pentahydroxy-6-methyl-1,11-dioxo-2-naphthacenecarboxamide]	–	–	–	–	–	–	31%	64%	inhibition at 100 µM [2]: 49%; inhibition at 500 µM [2]: 70%; inhibition at 1000 µM [2]: 100%; inhibition at 1000 µM [3]: 100%; % Reduction of hair mass ([1]; dose 10%, Vehicle B, pH 4.5): 56 ± 9%; Hair Mass (mg) Treated ([1]; dose 10%, Vehicle B, pH 4.5): 0.67 ± .10 mg
CN(C)c1ccc(O)c2c1C[C@H]1C[C@H]3[C@H](N(C)C)C(O)=C(C(N)=O)C(=O)[C@@]3(O)C(O)=C1C2=O [Minocycline, 7-dimethylamino-6-dimethyl-6-deoxytetracycline]	100%	100%	63 ± 6%	0.82 ± .11 mg	–	–	–	–	–
